Results from publication PMC8875508, “Cytotoxic Phenylpropanoid Derivatives and Alkaloids from the Flowers of Pancratium maritimum L” (Plants, 2022).

Tests used:
Format in all cases: cell-based
[1] = test system: MDA-MB-231 cells; assay: MTT antiproliferative assay, MDA-MB-231; conditions: Homo sapiens, 72 h, mean of three independent experiments, cutoff 10 µM, read-out: IC50 (Mean + SEM)
Protocol: (§1) HCT116 (Colorectal carcinoma, ATCC CCL-247) and HeLa (human cervical carcinoma, ATCC CCL-2) cells were cultured in RPMI 1640 medium with 10% FBS, and 1% penicillin–streptomycin, while MDA-MB-231 cells (triple-negative breast cancer, ATCC HTB-26) were cultured in DMEM medium with 1% penicillin–streptomycin and 10% FBS.
(§2) The evaluation of the antiproliferative effects compounds 1–7 were performed using MTT assay, as reported earlier. In short, the cells were incubated at 37 °C overnight in 5% CO2/air. After that, the compounds were added at the top row of a 96-well microtiter plate; a descendant serial dilution (1:4) of the concentration was performed followed by incubation of the cells with the compounds for 72 h. Using the Cell Titer 96 AQueous non-radioactive cell proliferation protocol, the cell viability was estimated at 490 nm on a Molecular Devices Emax microplate reader. The IC50 values of the compounds (expressed in μM) were evaluated using the program SoftMax Pro. A concentration of 10 µM was set as a cutoff value in this assay.

[2] = test system: HeLa cells; assay: MTT antiproliferative assay, HeLa; conditions: Homo sapiens, 72 h, mean of three independent experiments, cutoff 10 µM, read-out: IC50 (Mean + SEM)
Protocol: as §1, §2

[3] = test system: HCT 116 cells; assay: MTT antiproliferative assay, HCT 116; conditions: Homo sapiens, 72 h, mean of three independent experiments, cutoff 10 µM, read-out: IC50 (Mean + SEM)
Protocol: as §1, §2

[4] = test system: normal human dermal fibroblasts (NHDF); assay: MTT assay, normal human dermal fibroblasts
Protocol: The normal human dermal fibroblasts (NHDF) cells were cultured in fibroblast basal medium complemented with penicillin–streptomycin (1% v/v), insulin (5 µg/mL), heat-inactivated fetal bovine serum (FBS) (2% v/v), and basic fibroblast growth factor (1 ng/mL).
as §2

[5] = test system: HCT116, HeLa, and MDA-MB-231 cell lines; assay: MTT assay, average over the cancerous cell lines; conditions: Homo sapiens; average of HCT116, HeLa and MDA-MB-231; read-out: average IC50 against the cancerous cell lines
Protocol: as §1, §2

Row | Structure (SMILES) | IC50 [1] | IC50 [2] | IC50 [3] | IC50 ([4]; Homo sapiens, NHDF, MTT, 72 h, mean of three independent experiments, read-out: IC50 (Mean + SEM)) | selectivity towards the tested cancer cell lines versus NHDF ([4]; NHDF IC50 6.6 µM versus average IC50 0.099 µM of the cancer cell lines) | IC50 [5]
1 | COC(=O)/C=C\c1ccc(O[C@@H]2O[C@H](CO)[C@@H](O)[C@H](O)[C@H]2O)cc1 [Compound 1, 3-[4-(β-D-glucopyranosyloxy)phenyl]-2-(Z)-propenoic acid methyl ester] | ≥ 10 µM | ≥ 10 µM | ≥ 10 µM | – | – | –
2 | COC(=O)c1ccc(O[C@@H]2O[C@H](CO)[C@@H](O)[C@H](O)[C@H]2O)c(OC)c1 [Compound 2, 3-methoxy-4-(β-D-glucopyranosyloxy)benzoic acid methyl ester] | ≥ 10 µM | ≥ 10 µM | ≥ 10 µM | – | – | –
3 | COc1ccc(CCCO[C@@H]2O[C@H](CO)[C@@H](O)[C@H](O)[C@H]2O)cc1 [Compound 3, 3-(4-methoxyphenyl)propan-1-ol-1-O-β-D-glucopyranoside] | ≥ 10 µM | ≥ 10 µM | ≥ 10 µM | – | – | –
4 | O=c1[nH]cc(F)c(=O)[nH]1 [Compound 5-FU, 5-Fluorouracil, reference compound] | 13 ± 0.3 µM | 12.3 ± 0.25 µM | 4.6 ± 0.23 µM | – | – | –
5 | O=C1N[C@H]2[C@H](O)[C@H](O)[C@@H](O)[C@H](O)[C@@H]2c2cc3c(c(O)c21)OCO3 [Compound 7, pancratistatin] | 0.14 ± 0.002 µM | 0.058 ± 0.001 µM | 0.1 ± 0.005 µM | 6.6 ± 0.034 µM | 66 fold | 0.099 µM
6 | O=C(O)/C=C/c1ccc(O)c(O)c1 [Compound 5, caffeic acid] | ≥ 10 µM | ≥ 10 µM | ≥ 10 µM | – | – | –
